From US5700789A, “Antiallergic composition comprising a phosphoric diester compound” (Senju Pharmaceutical Co., Ltd., priority 1995, dated 1997)
Structures can show the parent of a compound that is named as a salt.

Experiments:
[1] = Acute toxicity (LD50) in rats; settings: rat, in vivo, iv; i.v. (rats)
[2] = test system: palpebral edema induced by the histamine releaser Compound 48/80; experiment: Palpebral edema induced by the histamine releaser Compound 48/80 in rats (topical instillation); format: in vivo, rat (male SD); settings: 5 μl/eye of 0.1% test material; for Inhibition rate: edema inhibition rate with respect to the control group, 4 hr after Compound 48/80; for Edema weight: male SD rats, 6 instillations, wet weight 4 hr after Compound 48/80, * p<0.001 vs control
Procedure: The effect of the compound of the invention on the palpebral edema induced by the histamine releaser Compound 48/80 (the condensation product of N-methyl-p-methoxy-phenethylamine with formaldehyde) (Sigma Chemical Company) was evaluated.
(1) 0.1% L-ascorbyl DL-α-tocopheryl phosphate sodium (Abbreviation: EPC-Na) (dissolved in physiological saline and adjusted to pH 7.0)
(2) 0.1% diphenhydramine hydrochloride (an antihistaminic) (dissolved in physiological saline)
Method: Male SD rats weighing about 180 g were used.
The rats were divided into three groups, i.e. a control group, an EPC-Na group, and a diphenhydramine HCl group, and 20 μl/eye of 0.008% Compound 48/80 (dissolved in physiological saline) was injected subconjunctivally at both lids to induce palpebral edema. Two (2), 1, and 0.5 hr before subconjunctival injection and 0.5, 1.5, and 2.5 hr after the injection, rats in the control group were topically treated with 5 μl/eye of physiological saline and those in the EPC-Na group and diphenhydramine HCl group were similarly treated with 5 μl/eye of the corresponding test materials. Four (4) hr after injection of Compound 48/80 (1.5 hr after the last instillation), the rats were sacrificed and the edematous portion of the palpebra was excised, its wet weight (mg) was determined, and the edema inhibition rate (%) with respect to the control group was calculated.

[3] = test system: Type III allergic conjunctivitis; experiment: Type III allergic conjunctivitis in rats (rat antirabbit serum injected subconjunctivally); format: in vivo; settings: 5 μl/eye, 6 instillations, 0.1% EPC-Na or 0.1% as dexamethasone, wet weight 0.5 hr after last instillation, mean ± S.D. (n = 4), * p<0.001 vs control
Procedure: The effect of the compound of the invention on Type III allergic conjunctivitis was evaluated.
(1) 0.1% EPC-Na (dissolved in physiological saline)
(2) 0.15% dexamethasone sodium metasulfobenzoate
(Visualin Ophthalmic Solution (registered trademark, Senju Pharmaceutical Co. Ltd.) (0.1% as dexamethasone, hereinafter referred to briefly as dexamethasone)
The rats were divided into three groups, namely a control group, an EPC-Na group and a dexamethasone group, and 30 μl of rat antirabbit serum was injected subconjunctivally at both lids. Two (2), 1.5, and 0.5 hr before subconjunctival injection and 0.5, 1.5, and 2.5 hr after the injection, rats in the control group were topically treated with 5 μl/eye of physiological saline and those in the test groups were similarly treated with 5 μl/eye of the respective test materials. At 0.5 hr after the last instillation, the rats were sacrificed, the edema weight (wet weight/mg) was determined, and the inhibition rate (%) with respect to the control group was calculated.

| SMILES | LD50 [1] [mg/kg] | Inhibition rate [2] [%] | Edema weight [2] [mg] | Edema weight [3] [mg] |
| --- | --- | --- | --- | --- |
| Cc1c(C)c2c(c(C)c1OP(=O)(O)OC1=C(O)[C@@H]([C@@H](O)CO)OC1=O)CCC(C)(CCCC(C)CCCC(C)CCCC(C)C)O2 (mixture of isomers) [EPC-K, L-ascorbyl DL-α-tocopheryl phosphate potassium] | ≥ 100 |  |  |  |
| Cc1c(C)c2c(c(C)c1OP(=O)(O)OC1=C(O)[C@@H]([C@@H](O)CO)OC1=O)CCC(C)(CCCC(C)CCCC(C)CCCC(C)C)O2 (mixture of isomers) [EPC-Na, L-ascorbyl DL-α-tocopheryl phosphate sodium] |  | 33.5 | 76.1 ± 11.6 | 57.4 ± 8.1 |
| C[C@@H]1C[C@H]2[C@@H]3CCC4=CC(=O)C=C[C@]4(C)[C@@]3(F)[C@@H](O)C[C@]2(C)[C@@]1(O)C(=O)COC(=O)c1cccc(S(=O)(=O)O)c1 [Dexamethasone, dexamethasone sodium metasulfobenzoate, reference compound] |  |  |  | 58.2 ± 3.8 |
| CN(C)CCOC(c1ccccc1)c1ccccc1 [Diphenhydramine HCl, diphenhydramine hydrochloride, reference compound] |  | 44.8 | 63.2 ± 8.2 |  |
